Measured values published in US20260265221A1, “PARP INHIBITOR, AND PREPARATION METHOD THEREFOR AND MEDICAL USE THEREOF” (WIGEN BIOMEDICINE TECHNOLOGY (SHANGHAI) CO., LTD., priority 2023, published 2026).

What was measured:
[1] = test system: MDA-MB-436 xenograft tumor; experiment: In vivo efficacy in MDA-MB-436 xenograft tumor model; parameters: species or system mouse; settings: for Tumor growth inhibition rate: after 28 days
Experimental: MDA-MB-436 cells were subjected to adherent culture in an L-15 medium containing 10% fetal bovine serum and 1% AA at 37° C. with 5% CO2. The cells were digested with trypsin and routinely passaged twice a week. When cells were maintained in the exponential growth phase with viability greater than 95%, the cells were collected, counted, and inoculated. Each 6- to 8-week-old female BALB/c nude mouse was inoculated with 10×10^6 MDA-MB-436 cells+Matrigel in a volume of 0.2 mL in the right cervicodorsal region. […] The compounds were orally administered once a day, and the tumor volume and body weight of the mice were measured twice a week. After 28 days of administration, the mice were sacrificed. Data were processed using software such as Excel.

MDA-MB-436 cells = experiment: In vitro inhibition of MDA-MB-436 cell proliferation (CTG, 10 days); assay type: cell-based; settings: Homo sapiens, MDA-MB-436, 240 h, 10 days incubation, read-out: Inhibitory activity against MDA-MB-436 cells (IC50)
Experimental: MDA-MB-436 cells were seeded in a 96-well low-adsorption plate at 1200 cells/well. After the cells adhered to the wall overnight, the serially diluted compound was added, and the cells were incubated for another 10 days. The ATP level of the cells was then determined by CTG to evaluate the cell growth. The growth inhibition percentages and IC50 of the compounds were calculated compared to the DMSO group.

[2] = In vivo pharmacokinetic experiment in CD-1 mice; settings: mouse, plasma, CD-1 female mice; for Vd: read-out: Vdss
Experimental: CD-1 female mice aged 7 to 10 weeks were intravenously administered and orally administered at doses of 1 mg/kg and 10 mg/kg, respectively.
On the day of the experiment, animals in the intravenous group were given the corresponding compound by single injection via the tail vein at an administration volume of 2 mL/kg, and animals in the oral group were given the corresponding compound by single intragastric injection at an administration volume of 10 mL/kg. The animals were weighed before administration, and their administration volume was calculated according to their body weight. […] About […] of whole blood was collected through the orbital venous plexus at each time point and used to prepare plasma for concentration determination by high performance liquid chromatography-tandem mass spectrometry (LC-MS/MS). All animals were suffocated by CO2 after the PK samples were collected at the last time point. The plasma concentrations were processed using a non-compartmental model of Winnolin™ version 8.2 (Pharsight, mountain View, CA) pharmacokinetic software, and the pharmacokinetic parameters were calculated using a linear-log trapezoidal method.

[3] = In vitro liver microsomal stability, mouse; assay type: in vitro ADME; settings: 1 μM compound, 500 μg/mL liver microsomes, NADPH
[4] = In vitro liver microsomal stability, human; assay type: in vitro ADME; settings: 1 μM compound, 500 μg/mL liver microsomes, NADPH
[5] = 0 days (start of administration), BALB/c nude mice
[6] = 28 days, oral once a day, […] day 1-7 and 3 mg/kg day 8-28
[7] = oral once a day, […] day 1-7 and 3 mg/kg day 8-28

Row | SMILES | IC50 (MDA-MB-436 cells) [nM] | AUC(0-t) ([2]; iv, Injection (1 mg/kg)) [ng·h/mL] | clearance ([2]; iv, Injection (1 mg/kg)) [mL/min/kg] | half-life ([2]; iv, Injection (1 mg/kg)) [h] | Vd ([2]; iv, Injection (1 mg/kg)) [L/kg] | AUC(0-t) ([2]; Oral administration (10 mg/kg)) [ng·h/mL] | Cmax ([2]; Oral administration (10 mg/kg)) [ng/mL] | Tmax ([2]; Oral administration (10 mg/kg)) [h] | bioavailability ([2]; Oral administration (10 mg/kg)) [%] | half-life ([2]; Oral administration (10 mg/kg)) [h] | half-life at 1 μM [3] [h] | half-life at 1 μM [4] [h] | Mean tumor volume [1, 5] [mm^3] | Mean tumor volume [1, 6] [mm^3] | Tumor growth inhibition rate [1, 7] [%]
1 | CNC(=O)c1ccc(N2CCN(Cc3ccc4nc(C)c(=O)[nH]c4c3F)CC2)c(F)n1 [AZD9574, reference compound] | 9 | 2550 | 6.42 | 4.54 | 2.03 | 25400 | 5140 | 0.5 | 99.5 | 4.37 | 2.1 | 1.72 | 212 | 126 | 141
2 | Cc1nc2ccc(CN3CCN(c4ccc(C(=O)N[C@H]5C[C@H]5F)nc4F)CC3)cc2[nH]c1=O [Compound 1] | 1.6 | 3680 | 4.52 | 3.13 | 1.13 | 60800 | 14800 | 0.17 | 166 | 2.08 | 4.88 | 8.23 | 212 | 87 | 159
3 | Cc1nc2ccc(CN3CCN(c4ccc(C(=O)N[C@@H]5C[C@@H]5F)nc4F)CC3)cc2[nH]c1=O [Compound 2] | 2.4 | 2120 | 7.7 | 1.48 | 0.76 | 30900 | 10600 | 0.5 | 146 | 1.71 | 5.15 | 3.88 |  |  | 

The remaining compounds from weak to strong by IC50 (MDA-MB-436 cells), led by results:

Row | IC50 (MDA-MB-436 cells) [nM] | AUC(0-t) ([2]; iv, Injection (1 mg/kg)) [ng·h/mL] | clearance ([2]; iv, Injection (1 mg/kg)) [mL/min/kg] | half-life ([2]; iv, Injection (1 mg/kg)) [h] | Vd ([2]; iv, Injection (1 mg/kg)) [L/kg] | AUC(0-t) ([2]; Oral administration (10 mg/kg)) [ng·h/mL] | Cmax ([2]; Oral administration (10 mg/kg)) [ng/mL] | Tmax ([2]; Oral administration (10 mg/kg)) [h] | bioavailability ([2]; Oral administration (10 mg/kg)) [%] | half-life ([2]; Oral administration (10 mg/kg)) [h] | half-life at 1 μM [3] [h] | half-life at 1 μM [4] [h] | SMILES | Mean tumor volume [1, 5] [mm^3] | Mean tumor volume [1, 6] [mm^3] | Tumor growth inhibition rate [1, 7] [%]
4 | 16 | 2170 | 7.5 | 5.07 | 2.38 | 20400 | 4530 | 0.17 | 93 | 3.8 | 14.4 | 1.67 | Cc1nc2ccc(CN3CCN(c4ccc(C(=O)NC5CC5)nc4F)CC3)c(F)c2[nH]c1=O [Compound 10] |  |  | 
5 | 3.7 | 3590 | 4.62 | 3.41 | 0.73 | 60800 | 16000 | 0.08 | 192 | 1.89 | 9.43 | 3.8 | Cc1nc2ccc(CN3CCN(c4ccc(C(=O)NC5CC5)nc4F)CC3)cc2[nH]c1=O [Compound 9] | 212 | 185 | 113
6 | 2.6 |  |  |  |  |  |  |  |  |  |  |  | CCc1nc2ccc(CN3CCN(c4ccc(C(=O)N[C@@H]5C[C@@H]5F)nc4F)CC3)cc2[nH]c1=O [Compound 6] |  |  | 
7 | 1.7 |  |  |  |  |  |  |  |  |  |  |  | CCc1nc2ccc(CN3CCN(c4ccc(C(=O)N[C@H]5C[C@H]5F)nc4F)CC3)cc2[nH]c1=O [Compound 11] |  |  | 
